Holding throughout (experiment): growth of human tumour cells (NCI), 48 h
Test [1] deals with SK-MEL-5.
Test [2] concerns NCI/ADR-RES.
Test [3] has as its system SN12C.
Test [4] relates to SW-620.
Test [5] concerns HL-60.
Test [6] deals with SK-MEL-2.
The test system of test [7] is SR.
For test [8], the system named is LOX IMVI.
The subject of test [9] is NCI-H460.
For test [10], the system named is OVCAR-3.
For test [11], the system named is A549.
For test [12], the system named is 786-0.
Test [13] deals with Hs-578T.
The test system of test [14] is HCC 2998.
For test [15], the system named is RXF 393.
The subject of test [16] is SNB-75.
In test [17] the test system is UO-31.
Test [18] relates to EKVX.
The subject of test [19] is SF-539.
Test [20] has as its system MCF7.

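Interpolation was linear, between the two tested concentrations surrounding the appropriate level; five concentrations were tested over 48 hours in 96-well plates. The concentration for 50% growth inhibition is given as GI50.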 Calls of active or inactive are those of the source. Cut-off read from the data, not from the text of the source: active = GI50 up to about 1.1 µM and inactive = higher. A value given as a limit tells only on which side of the number the result lay.

As to `CC(C)(C)OC(=O)NC1CCCC1C(O)(C1=CCCC1)C1=CCCC1` (centres undefined), the GI50 in test [1], in test [2], in test [3], in test [4], in [5] and in test [6] was > 100 µM (inactive) each time. Moreover, the GI50 in test [7], in test [8], in test [9], in test [10], in [11] and in test [12] was > 100 µM (inactive) in each case. Also, the GI50 in [13] was > 100 µM (inactive); in [14] it was > 100 µM (inactive); in test [15] it was > 100 µM (inactive); in test [16], 48.1 µM (inactive).

As for `O=c1[nH]n(Cc2ccccn2)c2ccc([N+](=O)[O-])cc12`, the GI50 in [1], in [2], in test [3], in test [4], in [17] and in test [5] was > 100 µM (inactive) throughout. Further, the GI50 in test [6], in [7], in [18], in test [8], in test [9] and in test [10] was > 100 µM (inactive) throughout. In addition, the GI50 in test [11], in [12], in [13], in [19], in test [14] and in [15] was > 100 µM (inactive) throughout. In test [16], the GI50 was > 100 µM (inactive).

Turning to `Cc1c(CNc2ccc(Cl)c(C(=O)NC(CC(=O)O)C(=O)O)c2)ccc2nc(N)nc(N)c12` (centres undefined), the GI50 in test [1] is 0.148 µM (active); in test [20], 0.499 µM (active); in test [3], 0.57 µM (active); in [4], < 0.0175 µM (active); in test [17], 0.665 µM (active); in [5], 2.42 µM (inactive). In addition, the GI50 is > 100 µM (inactive) in test [6]; 8.15 µM (inactive) in [18]; < 0.0118 µM (active) in [8]; 0.0352 µM (active) in test [9]; 6.46 µM (inactive) in test [10]; 1.33 µM (inactive) in test [11]. Moreover, the GI50 in test [12] is < 0.01 µM (active); in test [13], 506 µM (inactive); in test [19] it was 2.62 µM (inactive); in test [14], 0.256 µM (active); in test [15] it was > 39.4 µM (inactive); in [16], > 32.3 µM (inactive).

On to `COC(=O)CSC1CC(=O)c2c(Cl)sc(Cl)c21` (centres undefined), for which the GI50 in test [1], in [20], in test [3], in test [4], in [17] and in [6] was > 100 µM (inactive) throughout. Further, the GI50 in test [7] was 66.2 µM (inactive); in test [18], > 100 µM (inactive); in test [8] it was > 100 µM (inactive); in [9], > 100 µM (inactive); in test [11], > 100 µM (inactive); in [12] it was > 100 µM (inactive). Further, the GI50 in test [13], in [14], in [15] and in [16] was > 100 µM (inactive) throughout.

(Values after ChEMBL document CHEMBL1201862, “PubChem BioAssay data set” (2004).)
